Source: the supplement of paper PMC5908809

Key:
[1] = system: normal NK cells expanded with K562-aAPC; assay: percent inhibition of viability; higher = more inhibition; details: 72 h, IL-2 2.5 ng/mL
Experimental: (§1)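 Drug sensitivity and resistance testing on K562-aAPC-expanded normal NK cells: 5 concentrations (10-fold steps over a 10,000-fold range), 72 h at 37 °C, viability by CellTiter-Glo normalised to DMSO and benzethonium chloride controls; DSS from the fitted curve.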

[2] = system: normal NK cells expanded with K562-aAPC; assay: drug sensitivity score (DSS) (DSS units); higher = more sensitive; extreme values may be limits of the assay; details: 72 h; IL-2 2.5 ng/mL
Experimental: as §1

NK-YS (IL-2 2.5 ng/mL) [3] = assay: percent inhibition of viability; higher = more inhibition; details: 72 h
[4] = system: normal primary NK cells, pool 2 (3 donors) (IL-2 2.5 ng/mL); assay: as above; details: 72 h
YT (IL-2 2.5 ng/mL) [5] = assay: as above; details: 72 h
[6] = system: normal primary NK cells, pool 3 (3 donors) (IL-2 2.5 ng/mL); assay: as above; details: 72 h
SNK-6 (IL-2 2.5 ng/mL) [7] = assay: as above; details: 72 h
KAI3 (IL-2 2.5 ng/mL) [8] = assay: as above; details: 72 h
NKL (IL-2 2.5 ng/mL) [9] = assay: as above; details: 72 h
KHYG-1 (IL-2 2.5 ng/mL) [10] = assay: as above; details: 72 h
IMC-1 (IL-2 20 ng/mL) [11] = assay: as above; details: 72 h
[12] = system: normal primary NK cells, pool 1 (3 donors) (IL-2 2.5 ng/mL); assay: as above; details: 72 h
DERL-7 (IL-2 2.5 ng/mL) [13] = assay: as above; details: 72 h
NK-92 (IL-2 2.5 ng/mL) [14] = assay: as above; details: 72 h
[15] = system: normal primary NK cells, pool 1 (3 donors), resting (IL-2 0 ng/mL); assay: as above; details: 72 h
NK-YS (IL-2 2.5 ng/mL) [16] = assay: drug sensitivity score (DSS) (DSS units); higher = more sensitive; extreme values may be limits of the assay; details: 72 h
[17] = system: normal primary NK cells, pool 2 (3 donors) (IL-2 2.5 ng/mL); assay: as above; details: 72 h
YT (IL-2 2.5 ng/mL) [18] = assay: as above; details: 72 h
[19] = system: normal primary NK cells, pool 3 (3 donors) (IL-2 2.5 ng/mL); assay: as above; details: 72 h
SNK-6 (IL-2 2.5 ng/mL) [20] = assay: as above; details: 72 h
KAI3 (IL-2 2.5 ng/mL) [21] = assay: as above; details: 72 h
NKL (IL-2 2.5 ng/mL) [22] = assay: as above; details: 72 h
KHYG-1 (IL-2 2.5 ng/mL) [23] = assay: as above; details: 72 h
IMC-1 (IL-2 20 ng/mL) [24] = assay: as above; details: 72 h
[25] = system: normal primary NK cells, pool 1 (3 donors) (IL-2 2.5 ng/mL); assay: as above; details: 72 h
DERL-7 (IL-2 2.5 ng/mL) [26] = assay: as above; details: 72 h
NK-92 (IL-2 2.5 ng/mL) [27] = assay: as above; details: 72 h
[28] = system: normal primary NK cells, pool 1 (3 donors), resting (IL-2 0 ng/mL); assay: as above; details: 72 h

Cc1cnc(NC(=O)Nc2cc(Br)c(C)cc2OC[C@@H]2CNCCO2)cn1 [Rabusertib] (max concentration tested 1000 nM)
percent inhibition of viability [%]
Details | 0.1 nM | 1 nM | 10 nM | 100 nM | 1000 nM
DERL-7 (IL-2 2.5 ng/mL) [13] | 5.67 | 5.69 | 4.81 | 4.56 | 33.5
IMC-1 (IL-2 20 ng/mL) [11] | -3.74 | -1.84 | 2.04 | 1.67 | 9.87
KAI3 (IL-2 2.5 ng/mL) [8] | -0.28 | -3.83 | 3.9 | 11.6 | 81
KHYG-1 (IL-2 2.5 ng/mL) [10] | 3.66 | 7.68 | 5.93 | 14.9 | 103
NK-92 (IL-2 2.5 ng/mL) [14] | -4.77 | 4.85 | 16 | 18.2 | 86.9
NK-YS (IL-2 2.5 ng/mL) [3] | 1.16 | 1.34 | 0.68 | 3.22 | 65.2
NKL (IL-2 2.5 ng/mL) [9] | -16.6 | 0.3 | -1.09 | 14 | 86.2
SNK-6 (IL-2 2.5 ng/mL) [7] | 11.6 | 6.32 | 2.12 | 11.8 | 62.8
YT (IL-2 2.5 ng/mL) [5] | -0.82 | -0.63 | 1.16 | -2 | 11
[1] | 4.2 | -1.61 | 0.16 | 13.5 | 55.7
[4] | -8.45 | 5.23 | 3.94 | 0.79 | 15.8
[6] | -20.8 | -8.02 | 3.37 | -3.4 | 8.17
[12] | -1.58 | -1.28 | -6.24 | -18 | -4.02
[15] | 5.84 | -6.29 | 4.9 | -19.1 | -1.65

Details | drug sensitivity score
DERL-7 (IL-2 2.5 ng/mL) [26] | 2.31
IMC-1 (IL-2 20 ng/mL) [24] | 0
KAI3 (IL-2 2.5 ng/mL) [21] | 6.43
KHYG-1 (IL-2 2.5 ng/mL) [23] | 8.07
NK-92 (IL-2 2.5 ng/mL) [27] | 7.67
NK-YS (IL-2 2.5 ng/mL) [16] | 4.02
NKL (IL-2 2.5 ng/mL) [22] | 7.11
SNK-6 (IL-2 2.5 ng/mL) [20] | 5.37
YT (IL-2 2.5 ng/mL) [18] | 0
[2] | 5.12
[17] | 0.35
[19] | 0
[25] | 0
[28] | 0

CNC(=O)c1ccc(N2C(=S)N(c3ccc(C#N)c(C(F)(F)F)c3)C(=O)C2(C)C)cc1F [Enzalutamide] (max concentration tested 10000 nM)
percent inhibition of viability [%]
Details | 1 nM | 10 nM | 100 nM | 1000 nM | 10000 nM
DERL-7 (IL-2 2.5 ng/mL) [13] | -1.7 | -4.09 | -9.3 | -2.76 | -5
IMC-1 (IL-2 20 ng/mL) [11] | -3.38 | 0.92 | -2.2 | -1.9 | 18.3
KAI3 (IL-2 2.5 ng/mL) [8] | -6.43 | -7.59 | -3.84 | -14.2 | -5.9
KHYG-1 (IL-2 2.5 ng/mL) [10] | -6.93 | -4.23 | -3.55 | -6.97 | 4.84
NK-92 (IL-2 2.5 ng/mL) [14] | 1.65 | -8.18 | -6.81 | -3.14 | 20.8
NK-YS (IL-2 2.5 ng/mL) [3] | -6.5 | -3.69 | -3.22 | -8.67 | 5.9
NKL (IL-2 2.5 ng/mL) [9] | -2.17 | -13.2 | -14 | -9.34 | 1.3
SNK-6 (IL-2 2.5 ng/mL) [7] | 12.3 | 20.8 | -9.97 | 42.2 | 17.6
YT (IL-2 2.5 ng/mL) [5] | -1.41 | -1.46 | -3.16 | -4.82 | 3.56
[1] | -2.32 | -10.8 | -8.2 | -6.11 | -8.96
[4] | -10.2 | -3.87 | -13.1 | -6.47 | 3.77
[6] | -14.6 | -16.8 | -6.74 | -9.3 | -4.81
[12] | -3.9 | 0.9 | -0.41 | -2.29 | 4.21
[15] | 7.62 | -0.58 | -1.62 | 6.1 | 31.6

Details | drug sensitivity score
DERL-7 (IL-2 2.5 ng/mL) [26] | 0
IMC-1 (IL-2 20 ng/mL) [24] | 0.37
KAI3 (IL-2 2.5 ng/mL) [21] | 0
KHYG-1 (IL-2 2.5 ng/mL) [23] | 0
NK-92 (IL-2 2.5 ng/mL) [27] | 0.49
NK-YS (IL-2 2.5 ng/mL) [16] | 0
NKL (IL-2 2.5 ng/mL) [22] | 0
SNK-6 (IL-2 2.5 ng/mL) [20] | 4.37
YT (IL-2 2.5 ng/mL) [18] | 0
[2] | 0
[17] | 0
[19] | 0
[25] | 0
[28] | 2.39
